According to patent US11034692B1 (Genentech, Inc., priority 2017, dated 2021):

target: HPK1; experiment: HPK1 Lantha Binding Assay ("Lanth"); conditions: Table B1-1, read-out: HPK1 Ki (μM) (Lanth)
Method: HPK1 Lantha Binding Assay (“Lanth”)
The compounds to be tested were diluted by preparing 12.5 uL/well of 5 mM compound (100×) in columns 2 and 13 and 10 ul/well of DMSO in columns 3-12, 14-23, and wells A1-H1 and I24-P24 of the compound plate using a Bravo liquid handling platform. For the reference compound, the top concentration was 1 mM. To the plate was added 10 ul 2 mM staurosporine in wells J1-P1 and A24-H24. A 11 point 5-fold compound serial dilution was performed using the Bravo liquid handling platform. From the plate were transferred 2.5 ul of the solutions from column 2 and column 13 to the 10 ul of DMSO in columns 3 and 14 & so on. The compound plate was centrifuged at 2500 rpm for 1 min. From the compound plate was transferred 80 nl of the compounds into an assay plate using the Echo liquid handler system. One compound plate makes two assay plates. Each assay plate is sealed and stored in an N2 cabinet.
The following assay concentrations and times were used: 2 nM HPK1, 2 nM Eu-Anti-GST Ab, and 15 nM Tracer222, with 60 min incubation time.
III. HPK Lantha Binding Assay:
For the binding assay, 4 ul 2×HPK1 and Eu-anti-GST antibody were added to each well of the assay plate using a Multidrop reagent dispenser. The solutions were incubated in a 23 C incubator for 1 h. To each well of the assay plate was added 4 ul 2× Tracer-222 using a Multidrop reagent dispenser. The solutions were again incubated in a 23 C incubator for 1 h. The results of the assay were read using an Envision plate reader with the following parameters: TR_FRET, 340ex/615 and 665em; 100 usec Delay; and 200 usec integration.
Compound Ki was analyzed using Morrison ki fit model in XL-fit • a. fit=(1−((((E+x)+(Ki*(1+(S/Kd))))−(((((E+x)+(Ki*(1+(S/Kd))))[…])−((4*E)*x))^0.5))/(2*E))) • res=(y-fit) • b. Parameters: • E=enzyme concentration • S=Tracer222 concentration, Kd=Tracer222 Kd • All measurements reported using the same units (uM)
Exemplary compounds of Formula I or Ia were tested in the binding assays. The Ki data in Table B1-1 are based on the “Lanth” assay.

SMILES | Ki [µM]
Nc1nc(-c2cnccc2C(F)F)cc2cc(NC(=O)[C@@H]3C[C@@H]3F)ncc12 [Compound 14, (1S,2S)—N-(8-amino-6-(4-(difluoromethyl)pyridin-3-yl)-2,7-naphthyridin-3-yl)-2-fluorocyclopropanecarboxamide] | 0.00946
N#Cc1ccncc1-c1cc2cc(NC(=O)[C@@H]3C[C@@H]3F)ncc2c(N)n1 [Compound 15, (1S,2S)—N-(8-amino-6-(4-cyanopyridin-3-yl)-2,7-naphthyridin-3-yl)-2-fluorocyclopropanecarboxamide] | 0.0226
Cc1c(F)cncc1-c1cc2cc(NC(=O)[C@@H]3C[C@@H]3F)ncc2c(N)n1 [Compound 17, (1S,2S)—N-(8-amino-6-(5-fluoro-4-methylpyridin-3-yl)-2,7-naphthyridin-3-yl)-2-fluorocyclopropanecarboxamide] | 0.0161
Cn1nccc1-c1cc2cc(NC(=O)[C@@H]3C[C@@H]3F)ncc2c(N)n1 [Compound 18, (1S,2S)—N-(8-amino-6-(1-methyl-1H-pyrazol-5-yl)-2,7-naphthyridin-3-yl)-2-fluorocyclopropanecarboxamide] | 0.0475
CCc1ccncc1-c1cc2cc(NC(=O)C3CCC3)ncc2c(N)n1 [Compound 20, N-[8-amino-6-(4-ethyl-3-pyridyl)-2,7-naphthyridin-3-yl]cyclobutanecarboxamide] | 0.00322
Cc1cc(CO)ncc1-c1cc2cc(NC(=O)C3CC3)ncc2c(N)n1 [Compound 25, N-(8-amino-6-(6-(hydroxymethyl)-4-methylpyridin-3-yl)-2,7-naphthyridin-3-yl)cyclopropanecarboxamide] | 0.00154
CCc1ccncc1-c1cc2cc(NC(=O)C3CC3)ncc2c(N)n1 [Compound 26, N-(8-amino-6-(4-ethylpyridin-3-yl)-2,7-naphthyridin-3-yl)cyclopropanecarboxamide] | 0.00021
Cn1cc(-c2cc3cc(NC(=O)C4CC4)ncc3c(N)n2)cn1 [Compound 27, N-[8-amino-6-(1-methylpyrazol-4-yl)-2,7-naphthyridin-3-yl]cyclopropanecarboxamide] | 0.00108
CCc1ccncc1-c1cc2cc(NC(=O)CCC#N)ncc2c(N)n1 [Compound 28, N-[8-amino-6-(4-ethyl-3-pyridyl)-2,7-naphthyridin-3-yl]-3-cyano-propanamide] | 0.0149
CCc1ccncc1-c1cc2cc(NC(=O)CCC(N)=O)ncc2c(N)n1 [Compound 29, N′-[8-amino-6-(4-ethyl-3-pyridyl)-2,7-naphthyridin-3-yl]butanediamide] | 0.014
CCc1ccncc1-c1cc2cc(NC(=O)NCc3cncs3)ncc2c(N)n1 [Compound 30, 1-[8-amino-6-(4-ethyl-3-pyridyl)-2,7-naphthyridin-3-yl]-3-(thiazol-5-ylmethyl)urea] | 0.00175
CCc1ccncc1-c1cc2cc(NC(=O)NC(C)C)ncc2c(N)n1 [Compound 31, 1-[8-amino-6-(4-ethyl-3-pyridyl)-2,7-naphthyridin-3-yl]-3-isopropyl-urea] | 0.0039
CCc1ccncc1-c1cc2cc(NC(=O)CC#N)ncc2c(N)n1 [Compound 32, N-[8-amino-6-(4-ethyl-3-pyridyl)-2,7-naphthyridin-3-yl]-2-cyano-acetamide] | 0.0264
CCc1ccncc1-c1cc2cc(NC(=O)N(C)C)ncc2c(N)n1 [Compound 33, 3-[8-amino-6-(4-ethyl-3-pyridyl)-2,7-naphthyridin-3-yl]-1,1-dimethyl-urea] | 0.0341
Cc1ccncc1-c1cc2cc(NC(=O)C(C)(C)C#N)ncc2c(N)n1 [Compound 35, N-(8-amino-6-(4-methylpyridin-3-yl)-2,7-naphthyridin-3-yl)-2-cyano-2-methylpropanamide] | 5.54
COC(C)(C)C(=O)Nc1cc2cc(-c3cnccc3C)nc(N)c2cn1 [Compound 36, N-(8-amino-6-(4-methylpyridin-3-yl)-2,7-naphthyridin-3-yl)-2-methoxy-2-methylpropanamide] | 4.08
Cc1ccncc1-c1cc2cc(NC(=O)C(C)(C)O)ncc2c(N)n1 [Compound 39, N-(8-amino-6-(4-methylpyridin-3-yl)-2,7-naphthyridin-3-yl)-2-hydroxy-2-methylpropanamide] | 2.03
Nc1nc(N2CCOC2=O)cc2cc(NC(=O)C3CC3)ncc12 [Compound 40, N-(8-amino-6-(2-oxooxazolidin-3-yl)-2,7-naphthyridin-3-yl)cyclopropanecarboxamide] | 0.098

SMILES | Ki [µM]
Nc1nc(-c2cnccc2CO)cc2cc(NC(=O)[C@@H]3C[C@@H]3F)ncc12 [Compound 44, (1S,2S)—N-(8-amino-6-(4-(hydroxymethyl)pyridin-3-yl)-2,7-naphthyridin-3-yl)-2-fluorocyclopropanecarboxamide] | 0.048
CCc1ccncc1-c1cc2cc(NC(=O)OCc3ccccc3)ncc2c(N)n1 [Compound 57, Benzyl 8-amino-6-(4-ethylpyridin-3-yl)-2,7-naphthyridin-3-ylcarbamate] | 0.00524
CCc1ccncc1-c1cc2cc(NC(=O)N[C@@H]3CCN(C)C3=O)ncc2c(N)n1 [Compound 65, (R)-1-(8-amino-6-(4-ethylpyridin-3-yl)-2,7-naphthyridin-3-yl)-3-(1-methyl-2-oxopyrrolidin-3-yl)urea] | 0.00547
CCc1ccncc1-c1cc2cc(NC(=O)C3=CC3)ncc2c(N)n1 [Compound 68, N-[8-amino-6-(4-ethyl-3-pyridyl)-2,7-naphthyridin-3-yl]cyclopropene-1-carboxamide] | 0.545
CCc1ccncc1-c1cc2cc(NC(=O)c3cc(C)[nH]n3)ncc2c(N)n1 [Compound 70, 5-Methyl-1H-pyrazole-3-carboxylic acid [8-amino-6-(4-ethylpyridin-3-yl)-[2,7]naphthyridin-3-yl]amide] | 0.0276
CCc1ccncc1-c1cc2cc(NC(=O)c3cc[nH]n3)ncc2c(N)n1 [Compound 71, 2H-Pyrazole-3-carboxylic acid [8-amino-6-(4-ethylpyridin-3-yl)-[2,7]naphthyridin-3-yl]amide] | 0.01
CCc1ccncc1-c1cc2cc(NC(=O)c3ccnn3C)ncc2c(N)n1 [Compound 72, 2-Methyl-2H-pyrazole-3-carboxylic acid [8-amino-6-(4-ethylpyridin-3-yl)-[2,7]naphthyridin-3-yl]amide] | 0.0141
CCc1ccncc1-c1cc2cc(NC(=O)c3cnn(C)c3)ncc2c(N)n1 [Compound 73, 1-Methyl-1H-pyrazole-4-carboxylic acid [8-amino-6-(4-ethylpyridin-3-yl)-[2,7]naphthyridin-3-yl]amide] | 0.0134
CCc1ccncc1-c1cc2cc(Nc3cnn(C)c3)ncc2c(N)n1 [Compound 74, 3-(4-Ethylpyridin-3-yl)-N6-(1-methyl-1H-pyrazol-4-yl)-[2,7]naphthyridine-1,6-diamine] | 0.0013
CCc1ccncc1-c1cc2cc(Nc3cn[nH]c3)ncc2c(N)n1 [Compound 75, 3-(4-Ethylpyridin-3-yl)-N6-(1H-pyrazol-4-yl)-[2,7]naphthyridine-1,6-diamine] | 0.0008
CCc1ccncc1-c1cc2cc(Nc3ccn(C)n3)ncc2c(N)n1 [Compound 76, 3-(4-Ethylpyridin-3-yl)-N6-(1-methyl-1H-pyrazol-3-yl)-[2,7]naphthyridine-1,6-diamine] | 0.0013
CCc1ccncc1-c1cc2cc(Nc3cc[nH]n3)ncc2c(N)n1 [Compound 77, 3-(4-Ethylpyridin-3-yl)-N6-(1H-pyrazol-3-yl)-[2,7]naphthyridine-1,6-diamine] | 0.0006
CCc1ccncc1-c1cc2cc(Nc3cnn(C4CCNCC4)c3)ncc2c(N)n1 [Compound 78, 3-(4-Ethylpyridin-3-yl)-N6-(1-piperidin-4-yl-1H-pyrazol-4-yl)-[2,7] naphthyridine-1,6-diamine] | 0.0001
CCc1ccncc1-c1cc2cc(NS(=O)(=O)C3CC3)ncc2c(N)n1 [Compound 79, Cyclopropanesulfonic acid [8-amino-6-(4-ethylpyridin-3-yl)-[2,7]naphthyridin-3-yl]amide] | 0.839
CCc1ccncc1-c1cc2cc(Nc3cc(C)ncn3)ncc2c(N)n1 [Compound 80, 3-(4-Ethylpyridin-3-yl)-N6-(6-methylpyrimidin-4-yl)-[2,7]naphthyridine-1,6-diamine] | 0.0003
CCc1ccncc1-c1cc2cc(Nc3cc(C(=O)N(C)CC)ccn3)ncc2c(N)n1 [Compound 81, 2-[8-Amino-6-(4-ethylpyridin-3-yl)-[2,7]naphthyridin-3-ylamino]-N-ethyl-N-methylisonicotinamide] | 0.0003
CCc1ccncc1-c1cc2cc(Nc3cccc(CO)n3)ncc2c(N)n1 [Compound 83, {6-[8-amino-6-(4-ethylpyridin-3-yl)-[2,7]naphthyridin-3-ylamino]pyridin-2-yl}methanol] | 0.0003
